Source: patent US20150374705A1, “Substances for treatment or relief of pain” (Shanghai Institues for Biological Sciences, priority 2012, published 2015)
Entries after “also recorded” stand apart in the source; their conditions may differ. Like-named read-outs stand apart in the source and are kept apart here.

How the values were obtained:
[1] = Tissue distribution, brain/plasma ratio by LC-MS; type: in vivo, rat; details: for Kp / Kp at 1 h: rat; for Kp at 1 h: sc, 3 mg/kg, subcutaneous injection, 1 hour after injection
Protocol: The second method was to measure the tissue distribution of the substance to be measured in animal tissues. Firstly the candidate substance was administrated to animals by injection (or oral administration). The brain tissue and plasma tissue were extracted 0.25-2.0 hours after injection. liquid Chromatograph Mass SpectrometerL-MS was used to measure the concentration of the drug. If the brain/plasma ratio of the compound is less than 0.5, then the candidate substance is a potential drug for treating pain with fewer side effects.
Meanwhile, the inventors detected the distribution of these compounds in the tissue of rats. Firstly the substances to be measured were subcutaneously injected into the body of animals. Then brain tissue and plasma tissue were extracted 1 hour after injection. Ls-MS was used to measure the concentration of drugs. If the brain/plasma ratio of the compound is less than 0.1, then the candidate substance is a potential drug for treating pain with fewer side effects.

[2] = tested on: SNI model rats (neuropathic pain); assay: Spared nerve injury (SNI) model, neuropathic pain, mechanical pain threshold; type: in vivo; details: rat; for Neuropathic pain (SNI model), analgesic effect: 3 mg/kg subcutaneous, 14 days after SNI, 1 hour after administration
Protocol: Male SD rats (200-250 g) were used, 6 per group in the cage. All the animals were placed under 12 hours light/cycle (i.e. 12 hours light and 12 hours dark in each day), free to food and water. All the experiments were conducted under the condition that the observers were blind to pharmaceutical treatment.
Spared nerve injury model (SNI): 10% chloral hydrate was injected intraperitoneally to anesthetize rats. […] The muscle was longitudinally separated to expose the core of sciatic nerve and the branching below: tibial nerve, common peroneal nerve and sural nerve. The tibial nerve and common peroneal nerve were ligatured and cut and small sural nerve was retained, meanwhile preventing any injury. The muscle and skin were sutured layer by layer, and then antibiotics were injected intraperitoneally for antibacterial purpose. For detailed methods, please refer to Decosterd I and Woolf C J. Spared nerve injury: an animal model of persistent peripheral neuropathic pain. 2000 August; Pain 87(2):149-58.
Method for detecting mechanical hyperalgesia in rats: firstly CFA solution was injected in the thenar of rats. After 24 hours, mechanical hyperalgesia quantitative detection was adopted to measure the paw withdrawal of rats to normal and harmless mechanical stimulation. Evaluation was conducted according to reference (Chaplan S R et al., Quantitative assessment of tactile allodynia in the rat paw. J Neurosci Methods. 1994 July; 53(1):55-63). In this method, the von Frey fibers with different bending force (equivalent to the range of 1-50 g force) were used to apply harmless mechanical stimulation. The rats were placed in organic glass box with metal mesh plate, and the von Frey fibers were applied on the surface of leg thenar. The von Frey fibers were applied vertically to the surface of thenar to generate the force that will trigger slight resistance to the leg. 2-3 seconds were maintained for every leg thenar. If the leg withdrew suddenly, positive records were recorded. The threshold was the mean of the weight that caused 50% paw withdrawal response (5-6 paw withdrawal/10 stimulations) in overall 10 stimulations.
Compounds MRK 016, C2, C3, C4, C5, C6, C7, C8 or α5IA (A5I) were dissolved in 70% PGE400 (PGE400:water=70:30 in volume). For injection dose, MRK016 was 2 mg/kg body weight; A5I was 3 mg/kg body weight; C2, C3, C4, C5, C6, C7 and C8 were 3 mg/kg body weight.
MRK016-M3 was dissolved in 90% PGE400 (PGE400:water=90:10 in volume). The doses were 10 mg/kg, 3 mg/kg, 1 mg/kg and 0.3 mg/kg, respectively for oral administration.
The method for behavioral data statistics was unpaired t-test. *, p<0.05, represents significant difference.

[3] = tested on: CFA induced inflammatory pain model rats (heat pain); assay: CFA induced inflammatory pain model, heat pain threshold; type: in vivo; details: rat, 3 mg/kg injection, 3 days after CFA, 1 hour after administration
[4] = tested on: CFA induced inflammatory pain model rats (mechanical pain); assay: CFA induced inflammatory pain model, mechanical pain threshold; type: in vivo; details: rat, 3 mg/kg injection, 7 days after CFA, 1 hour after administration
[5] = brain and plasma extracted 0.25-2.0 hours after injection, LC-MS

SMILES	Neuropathic pain (SNI model), analgesic effect [2]	CFA induced inflammatory pain model (heat pain), analgesic effect [3]	CFA induced inflammatory pain model (mechanical pan), analgesic effect [4]	Kp at 1 h ([1]; brain and plasma, LC-MS)	also measured
Clc1ncn2c1Cn1ncnc1-c1cc(Br)ccc1-2 [drawing 28]	–	–	–	–	Passing blood brain barrier [1, 5]: more slightly passing blood brain barrier; Kp ([1]; in vivo): < 0.5
CC(C)(C)C1C(OCc2cccnc2)=NN2C(c3cc(CO)on3)=NN=CC12 (stereo not drawn) [Compound C3, (3-(3-tert-butyl-2-(3-pyridylmethoxyl)-3,3a-2H-pyrazolo[1,5-d][1,2,4]triazin-7-yl)isoxazole-5-yl)methanol]	–	–	–	–	Neuropathic pain (SNI model), analgesic effect ([2]; 3 mg/kg): efficiently treat pain; also recorded: efficiently suppressed neuropathic pain; CFA induced inflammatory pain model (heat pain), analgesic effect ([3]; 3 mg/kg): efficiently treat chronic pain; also recorded: efficiently suppressed heat pain or mechanical pain response; CFA induced inflammatory pain model (mechanical pan), analgesic effect ([4]; 3 mg/kg): efficiently treat pain; also recorded: efficiently suppressed heat pain or mechanical pain response
FC(F)c1ncn2c1Cn1ncnc1-c1cc(Br)ccc1-2 [drawing 58]	Significant analgesic effect	Significant analgesic effect	Significant analgesic effect	> 0.2	–
OCc1cc(-c2nnc3c4ccccc4c(OCc4cccnc4)nn23)no1 [Compound C6, {3-[6-(Pyridin-3-ylmethoxy)-[1,2,4]triazolo[3,4-a]phthalazin-3-yl]-isoxazol-5-yl}-methanol]	–	–	–	–	Neuropathic pain (SNI model), analgesic effect ([2]; 3 mg/kg): efficiently inhibit nociceptive response; also recorded: efficiently suppressed neuropathic pain; CFA induced inflammatory pain model (heat pain), analgesic effect ([3]; 3 mg/kg): efficiently inhibit nociceptive response; also recorded: efficiently suppressed heat pain or mechanical pain response; CFA induced inflammatory pain model (mechanical pan), analgesic effect ([4]; 3 mg/kg): efficiently inhibit nociceptive response; also recorded: efficiently suppressed heat pain or mechanical pain response
FC(F)c1ncn2c1Cn1ncnc1-c1cc(Br)ccc1-2 [drawing 27]	–	–	–	–	Passing blood brain barrier [1, 5]: slightly passing blood brain barrier; Kp ([1]; other: injection (or oral administration), brain and plasma extracted 0.25-2.0 hours after injection, LC-MS, read-out: brain/plasma ratio): < 0.5
Cc1ncn2c1Cn1ncnc1-c1cc(Br)ccc1-2	Significant analgesic effect	Significant analgesic effect	Significant analgesic effect	< 0.2	–
Clc1ncn2c1Cn1ncnc1-c1cc(I)ccc1-2	Significant analgesic effect	Significant analgesic effect	Significant analgesic effect	< 0.1	–
NCC1(CC(=O)O)CCCCC1 [gabapentin]	–	–	–	–	Suppression of neuropathic pain ([2]; 11 days after SNI model): efficiently suppressed neuropathic pain
FC(F)c1ncn2c1Cn1ncnc1-c1cc(I)ccc1-2	Significant analgesic effect	Significant analgesic effect	Significant analgesic effect	–	–
OCc1cc(-c2nnc3c4ccccc4c(OCc4ccncc4)nn23)no1 [Compound C7, {3-[6-(Pyridin-4-ylmethoxy)-[1,2,4]triazolo[3,4-a]phthalazin-3-yl]isoxazol-5-yl}-methanol]	–	–	–	–	Neuropathic pain (SNI model), analgesic effect ([2]; 3 mg/kg): efficiently inhibit nociceptive response; also recorded: efficiently suppressed neuropathic pain; CFA induced inflammatory pain model (heat pain), analgesic effect ([3]; 3 mg/kg): efficiently inhibit nociceptive response; also recorded: efficiently suppressed heat pain or mechanical pain response; CFA induced inflammatory pain model (mechanical pan), analgesic effect ([4]; 3 mg/kg): efficiently inhibit nociceptive response; also recorded: efficiently suppressed heat pain or mechanical pain response
FC(F)c1ccc2c(c1)-c1ncnn1Cc1c(Cl)ncn1-2	Significant analgesic effect	Significant analgesic effect	Significant analgesic effect	–	–
Clc1ncn2c1Cn1ncnc1-c1cc(Br)ccc1-2 [drawing 57]	Significant analgesic effect	Significant analgesic effect	Significant analgesic effect	< 0.1	–
Cc1ncn2c1Cn1ncnc1-c1cc(C(F)F)ccc1-2	Significant analgesic effect	Significant analgesic effect	Significant analgesic effect	–	–
Cc1ncn2c1Cn1ncnc1-c1cc(I)ccc1-2	Significant analgesic effect	Significant analgesic effect	Significant analgesic effect	< 0.1	–
CC(C)(C)C1C(OCc2ccccn2)=NN2C(c3cc(CO)on3)=NN=CC12 (stereo not drawn) [Compound C2, (3-(3-tert-butyl-2-(2-pyridylmethoxyl)-3,3a-2H-pyrazolo[1,5-d][1,2,4]triazin-7-yl)isoxazole-5-yl)methanol]	–	–	–	–	Neuropathic pain (SNI model), analgesic effect ([2]; 3 mg/kg): efficiently treat pain; also recorded: efficiently suppressed neuropathic pain; CFA induced inflammatory pain model (heat pain), analgesic effect ([3]; 3 mg/kg): efficiently treat chronic pain; also recorded: efficiently suppressed heat pain or mechanical pain response; CFA induced inflammatory pain model (mechanical pan), analgesic effect ([4]; 3 mg/kg): efficiently treat pain; also recorded: efficiently suppressed heat pain or mechanical pain response
Cc1ncn2c1Cn1ncnc1-c1cc(Cl)ccc1-2	Significant analgesic effect	Significant analgesic effect	Significant analgesic effect	0.2	–
Clc1ccc2c(c1)-c1ncnn1Cc1c(Cl)ncn1-2	Significant analgesic effect	Significant analgesic effect	Significant analgesic effect	–	Kp at 1 h ([1]; in vivo, LC-MS): > 0.2
